Experimental data as given in PubChem BioAssay (NCI).
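Cultured in 96-well plates, cells were exposed to test compound for 48 hours across five concentrations. At the GI50, growth is halved. TGI: total growth inhibition.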

Tests used:
Test in all cases: DTP human tumour cell line panel, 48 h; in the data active = GI50 below about 0.43 µM; inactive = the rest
OVCAR-5 ovarian = test system: OVCAR-5 ovarian
SF-295 CNS = test system: SF-295 CNS
MDA-N = test system: MDA-N
SNB-75 CNS = test system: SNB-75 CNS
SN12C renal = test system: SN12C renal
SW-620 colon = test system: SW-620 colon
NCI-H23 lung = test system: NCI-H23 lung
NCI-H522 lung = test system: NCI-H522 lung
HT29 colon = test system: HT29 colon
MALME-3M melanoma = test system: MALME-3M melanoma

N#C/C(C(=O)Nc1ccc(Cl)cc1)=C(/N)N1CCCC1
> 100 µM: TGI (OVCAR-5 ovarian) | TGI (SF-295 CNS) | TGI (MDA-N) | TGI (SNB-75 CNS) | TGI (SN12C renal) | TGI (SW-620 colon) | TGI (NCI-H23 lung)

O=P(O)(O)c1ccccc1Oc1ccccc1
> 100 µM: TGI (OVCAR-5 ovarian) | TGI (SF-295 CNS) | TGI (MDA-N) | TGI (SNB-75 CNS) | TGI (NCI-H522 lung) | TGI (SN12C renal) | TGI (SW-620 colon) | TGI (NCI-H23 lung)

CC1(C)OCC2OC3([C@@H]4OC(C)(C)O[C@H]4CO)OC(C)(C)OC3C2O1 (some centres not stated)
> 100 µM: TGI (OVCAR-5 ovarian) | TGI (SF-295 CNS) | TGI (MDA-N) | TGI (SNB-75 CNS) | TGI (SN12C renal) | TGI (SW-620 colon) | TGI (NCI-H23 lung)

CSc1cc(=O)n2c3ccccc3c3ccnc1c32
> 100 µM: TGI (HT29 colon) | TGI (OVCAR-5 ovarian) | TGI (SF-295 CNS) | TGI (MALME-3M melanoma) | TGI (NCI-H522 lung) | TGI (SN12C renal) | TGI (SW-620 colon) | TGI (NCI-H23 lung)
> 94.3 µM: TGI (SNB-75 CNS)

COc1ccc(-c2c3c(n(C4OC(CO)C(O)C(O)C4O)c(=S)c2C#N)CCC3)cc1 (configuration not stated)
> 100 µM: TGI (HT29 colon) | TGI (OVCAR-5 ovarian) | TGI (SF-295 CNS) | TGI (MALME-3M melanoma) | TGI (MDA-N) | TGI (SNB-75 CNS) | TGI (SN12C renal) | TGI (SW-620 colon) | TGI (NCI-H23 lung)

COc1cc2cc(C(=O)N3C[C@H](CCl)c4c3cc(N)c3ccccc43)[nH]c2c(OC)c1OC
> 50 µM: TGI (SF-295 CNS) | TGI (SW-620 colon)
0.0458 µM: TGI (SNB-75 CNS)
active: GI50 (HT29 colon) 0.005 µM | GI50 (OVCAR-5 ovarian) 0.005 µM | GI50 (SF-295 CNS) 0.005 µM | GI50 (MDA-N) < 0.001 µM | GI50 (SNB-75 CNS) 0.0123 µM | GI50 (NCI-H522 lung) < 0.005 µM | GI50 (SN12C renal) 0.00698 µM | GI50 (SW-620 colon) 0.005 µM
0.0582 µM: TGI (SN12C renal)
< 0.005 µM: TGI (NCI-H522 lung)
0.615 µM: TGI (HT29 colon)
0.552 µM: TGI (OVCAR-5 ovarian)
9.03 µM: TGI (MDA-N)
0.0103 µM: TGI (MALME-3M melanoma)

NCCCCNCCCNC(=O)c1nc(-c2nc(CCN)sc2Cl)sc1Cl
55.9 µM: TGI (NCI-H522 lung)
> 100 µM: TGI (HT29 colon) | TGI (OVCAR-5 ovarian) | TGI (SF-295 CNS) | TGI (MALME-3M melanoma) | TGI (SNB-75 CNS) | TGI (SN12C renal) | TGI (SW-620 colon) | TGI (NCI-H23 lung)

COC(=O)[C@@H]1CCCCC[C@H]2C(CO)=C(C)C(=O)C12 (some centres not stated)
> 100 µM: TGI (HT29 colon) | TGI (OVCAR-5 ovarian) | TGI (SF-295 CNS) | TGI (MALME-3M melanoma) | TGI (SNB-75 CNS) | TGI (NCI-H522 lung) | TGI (SN12C renal) | TGI (SW-620 colon) | TGI (NCI-H23 lung)

O=C1C=CC(=O)N1n1c(-c2ccccc2)n[nH]c1=O
> 100 µM: TGI (HT29 colon) | TGI (OVCAR-5 ovarian) | TGI (SF-295 CNS) | TGI (MALME-3M melanoma) | TGI (MDA-N) | TGI (NCI-H522 lung) | TGI (SN12C renal) | TGI (NCI-H23 lung)

O=C1NC2CCCCC2N=C1CC(=O)c1ccc(Br)cc1 (configuration not stated)
> 100 µM: TGI (HT29 colon) | TGI (OVCAR-5 ovarian) | TGI (SF-295 CNS) | TGI (MALME-3M melanoma) | TGI (MDA-N) | TGI (NCI-H522 lung) | TGI (SN12C renal) | TGI (SW-620 colon) | TGI (NCI-H23 lung)

COc1ccc(C2C3=C(COC3=O)Oc3cc4c(cc32)OCO4)c(OC)c1 (configuration not stated)
29.8 µM: TGI (SF-295 CNS)
46.8 µM: TGI (SNB-75 CNS)
> 100 µM: TGI (HT29 colon) | TGI (OVCAR-5 ovarian) | TGI (MALME-3M melanoma) | TGI (SN12C renal) | TGI (SW-620 colon) | TGI (NCI-H23 lung)

CN(C)CCNC(=O)c1cc(Cl)cc2ccc(-c3ccccc3)nc12
13.4 µM: TGI (SW-620 colon)
10.7 µM: TGI (HT29 colon)
16 µM: TGI (NCI-H522 lung)
14.4 µM: TGI (NCI-H23 lung)
8.26 µM: TGI (MALME-3M melanoma)
15.4 µM: TGI (SF-295 CNS)
13.7 µM: TGI (OVCAR-5 ovarian)
12.9 µM: TGI (SN12C renal)
14 µM: TGI (SNB-75 CNS)

O=C(CCc1cc(O)cc(O)c1)NCCCNC(=O)CCc1cc(O)cc(O)c1
> 100 µM: TGI (HT29 colon) | TGI (OVCAR-5 ovarian) | TGI (SF-295 CNS) | TGI (MALME-3M melanoma) | TGI (MDA-N) | TGI (NCI-H522 lung) | TGI (SN12C renal) | TGI (SW-620 colon) | TGI (NCI-H23 lung)

CCP(=O)(OC)C1=CCN(C(=O)OCC[Si](C)(C)C)CC1 (configuration not stated)
> 100 µM: TGI (HT29 colon) | TGI (OVCAR-5 ovarian) | TGI (SF-295 CNS) | TGI (MALME-3M melanoma) | TGI (MDA-N) | TGI (SNB-75 CNS) | TGI (NCI-H522 lung) | TGI (SW-620 colon) | TGI (NCI-H23 lung)

N#CC1(O)CCCCCCCCCCC1
> 100 µM: TGI (HT29 colon) | TGI (OVCAR-5 ovarian) | TGI (SF-295 CNS) | TGI (MALME-3M melanoma) | TGI (MDA-N) | TGI (NCI-H522 lung) | TGI (SN12C renal) | TGI (SW-620 colon) | TGI (NCI-H23 lung)

CN(C)CCCNC(=O)c1cc(NC(=O)c2cc(NC(=O)CCCn3c4ccccc4c4ccccc43)cn2C)cn1C
39.1 µM: TGI (SNB-75 CNS)
> 69.7 µM: TGI (SF-295 CNS)
39.3 µM: TGI (NCI-H23 lung)
> 57.7 µM: TGI (OVCAR-5 ovarian)
33.2 µM: TGI (SN12C renal)
> 49 µM: TGI (MALME-3M melanoma)
> 90.6 µM: TGI (NCI-H522 lung)
42.8 µM: TGI (SW-620 colon)
> 100 µM: TGI (HT29 colon)

CC(C)N1CC2CC(CN(C(=O)c3ccccc3)C2)C1
> 100 µM: TGI (HT29 colon) | TGI (OVCAR-5 ovarian) | TGI (SF-295 CNS) | TGI (MALME-3M melanoma) | TGI (SNB-75 CNS) | TGI (NCI-H522 lung) | TGI (SN12C renal) | TGI (SW-620 colon) | TGI (NCI-H23 lung)

O=c1cc(-c2ccncc2)[nH]c2cc3c(cc12)OCO3
> 100 µM: TGI (HT29 colon) | TGI (OVCAR-5 ovarian) | TGI (SF-295 CNS) | TGI (MDA-N) | TGI (SNB-75 CNS) | TGI (SN12C renal) | TGI (SW-620 colon) | TGI (NCI-H23 lung)

CN(C)CC1CCC/C(=C\c2ccc(OC(=O)c3ccc(Cl)cc3)cc2)C1=O (configuration not stated)
7.45 µM: TGI (MDA-N)
3.5 µM: TGI (NCI-H23 lung)
2.71 µM: TGI (SW-620 colon)
6.8 µM: TGI (MALME-3M melanoma)
4.1 µM: TGI (HT29 colon)
5.95 µM: TGI (OVCAR-5 ovarian)
9.16 µM: TGI (SNB-75 CNS)
4.84 µM: TGI (SN12C renal)
9.84 µM: TGI (SF-295 CNS)

Cc1ccc(C(=O)N/N=C(\N=Nc2ccccc2)c2ccc(N(C)C)cc2)cc1
> 100 µM: TGI (HT29 colon) | TGI (OVCAR-5 ovarian) | TGI (SF-295 CNS) | TGI (MDA-N) | TGI (NCI-H522 lung) | TGI (SN12C renal) | TGI (SW-620 colon) | TGI (NCI-H23 lung)

CSc1nc(NC(C)C)c2c(n1)Sc1nc3ccccc3n1N=C2
50.5 µM: TGI (NCI-H522 lung)
38 µM: TGI (MALME-3M melanoma)
> 100 µM: TGI (HT29 colon) | TGI (OVCAR-5 ovarian) | TGI (MDA-N)
35.4 µM: TGI (SN12C renal)
38.7 µM: TGI (NCI-H23 lung)
24.1 µM: TGI (SF-295 CNS)
35.3 µM: TGI (SW-620 colon)

O=C1C=CC=C/C1=C1\N=C(c2ccccc2OCC(=O)c2ccccc2)SS1
65.8 µM: TGI (SNB-75 CNS)
> 100 µM: TGI (HT29 colon) | TGI (OVCAR-5 ovarian) | TGI (SF-295 CNS) | TGI (MALME-3M melanoma) | TGI (MDA-N) | TGI (SN12C renal) | TGI (SW-620 colon) | TGI (NCI-H23 lung)
